{
  "source": "PubChem BioAssay AID330",
  "about": "(DTP/NCI, 2004)",
  "tested_on": "P388 leukemia ip, CD2F1 mice, survival T/C",
  "assay": "NCI In Vivo Anticancer Drug Screen. Data for tumor model P388 Leukemia (intraperitoneal) in CD2F1 (CDF1) mice",
  "settings": "endpoint: median survival time, higher = longer survival",
  "how_it_was_run": "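Mice carrying the transplanted tumor received test compound or vehicle. Survival was recorded in each group, and the value is the treated-group measurement divided by that of the vehicle-treated control group.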",
  "key": {"[1]": {"settings": "dose: 50.0 mg/kg/injection, schedule: Q01DX009 (ip), vehicle: saline"}, "[2]": {"settings": "dose: 60.0 mg/kg/injection, schedule: Q01DX005 (ip), vehicle: saline with Tween-80"}, "[3]": {"settings": "dose: 120.0 mg/kg/injection, schedule: Q01DX005 (ip), vehicle: saline with Tween-80"}, "[4]": {"settings": "dose: 240.0 mg/kg/injection, schedule: Q01DX005 (ip), vehicle: saline with Tween-80"}, "[5]": {"settings": "dose: 50.0 mg/kg/injection, schedule: Q01DX009 (ip), vehicle: Klucel (hydroxypropylcellulose) (HPC)"}, "[6]": {"settings": "dose: 100.0 mg/kg/injection, schedule: Q01DX009 (ip), vehicle: Klucel (hydroxypropylcellulose) (HPC)"}, "[7]": {"settings": "dose: 200.0 mg/kg/injection, schedule: Q01DX009 (ip), vehicle: Klucel (hydroxypropylcellulose) (HPC)"}},
  "note": "Several values for one entry are separate records, joined by “and”; a condition that tells them apart may be missing. Identical values can stand only once. Inconclusive results and toxic doses are left out.",
  "data": [
    {"smiles": "CN(C)c1ccc(N=Cc2cc[n+](C)cc2)cc1", "values": [
      {"measurement": "T/C", "setting": "dose: 6.25 mg/kg/injection, schedule: Q01DX009 (ip), vehicle: saline", "value": "114 % of control"},
      {"measurement": "T/C", "setting": "dose: 12.5 mg/kg/injection, schedule: Q01DX009 (ip), vehicle: saline", "value": "101 % of control"},
      {"measurement": "T/C", "setting": "dose: 25.0 mg/kg/injection, schedule: Q01DX009 (ip), vehicle: saline", "value": "105 % of control"},
      {"measurement": "T/C", "setting": "dose: 25.0 mg/kg/injection, schedule: Q04DX003 (ip), vehicle: saline", "value": "100 % of control"},
      {"measurement": "T/C", "setting": "[1]", "value": "111 % of control"},
      {"measurement": "T/C", "setting": "dose: 50.0 mg/kg/injection, schedule: Q04DX003 (ip), vehicle: saline", "value": "107 % of control"},
      {"measurement": "T/C", "setting": "dose: 100.0 mg/kg/injection, schedule: Q04DX003 (ip), vehicle: saline", "value": "107 % of control"}
    ]},
    {"smiles": "CC12CSC(C)(SC1)SC2", "values": [
      {"measurement": "T/C", "setting": "dose: 25.0 mg/kg/injection, schedule: Q01DX001 (ip), vehicle: Klucel (hydroxypropylcellulose) (HPC)", "value": "99 % of control"},
      {"measurement": "T/C", "setting": "dose: 50.0 mg/kg/injection, schedule: Q01DX001 (ip), vehicle: Klucel (hydroxypropylcellulose) (HPC)", "value": "99 % of control"},
      {"measurement": "T/C", "setting": "dose: 100.0 mg/kg/injection, schedule: Q01DX001 (ip), vehicle: Klucel (hydroxypropylcellulose) (HPC)", "value": "100 % of control"},
      {"measurement": "T/C", "setting": "dose: 200.0 mg/kg/injection, schedule: Q01DX001 (ip), vehicle: Klucel (hydroxypropylcellulose) (HPC)", "value": "100 % of control"},
      {"measurement": "T/C", "setting": "dose: 400.0 mg/kg/injection, schedule: Q01DX001 (ip), vehicle: Klucel (hydroxypropylcellulose) (HPC)", "value": "95 % of control"}
    ]},
    {"smiles": "CS(=O)(=O)OCCN(CCOS(C)(=O)=O)c1cccc(Cl)c1", "values": [
      {"measurement": "T/C", "setting": "dose: 1.25 mg/kg/injection, schedule: Q01DX009 (ip), vehicle: other", "value": "95 % of control"},
      {"measurement": "T/C", "setting": "dose: 2.5 mg/kg/injection, schedule: Q01DX009 (ip), vehicle: other", "value": "122 % of control"},
      {"measurement": "T/C", "setting": "dose: 10.0 mg/kg/injection, schedule: Q01DX009 (ip), vehicle: other", "value": "186 % of control"}
    ]},
    {"smiles": "CCOc1nc(N)c(C(=O)c2ccc(O)c(O)c2)s1", "values": [
      {"measurement": "T/C", "setting": "dose: 50.0 mg/kg/injection, schedule: Q01DX005 (ip), vehicle: Klucel (hydroxypropylcellulose) (HPC)", "value": "111 % of control"},
      {"measurement": "T/C", "setting": "dose: 100.0 mg/kg/injection, schedule: Q01DX005 (ip), vehicle: Klucel (hydroxypropylcellulose) (HPC)", "value": "109 % of control"},
      {"measurement": "T/C", "setting": "dose: 200.0 mg/kg/injection, schedule: Q01DX005 (ip), vehicle: Klucel (hydroxypropylcellulose) (HPC)", "value": "87 % of control"}
    ]},
    {"smiles": "CCOC(=O)C(C)(C)CN(CC(C)(C)C(=O)OCC)C(C)(C)C", "values": [
      {"measurement": "T/C", "setting": "dose: 100.0 mg/kg/injection, schedule: Q04DX003 (ip), vehicle: saline with Tween-80", "value": "109 % of control"},
      {"measurement": "T/C", "setting": "dose: 200.0 mg/kg/injection, schedule: Q04DX003 (ip), vehicle: saline with Tween-80", "value": "109 % of control"},
      {"measurement": "T/C", "setting": "dose: 400.0 mg/kg/injection, schedule: Q04DX003 (ip), vehicle: saline with Tween-80", "value": "122 % of control"}
    ]},
    {"smiles": "Cn1c(=O)c2c(ncn2CCNC(c2ccccc2)c2ccccc2)n(C)c1=O", "values": [
      {"measurement": "T/C", "setting": "dose: 50.0 mg/kg/injection, schedule: Q01DX005 (ip), vehicle: water", "value": "107 % of control"},
      {"measurement": "T/C", "setting": "dose: 100.0 mg/kg/injection, schedule: Q01DX005 (ip), vehicle: water", "value": "107 % of control"},
      {"measurement": "T/C", "setting": "dose: 200.0 mg/kg/injection, schedule: Q01DX005 (ip), vehicle: water", "value": "107 % of control"}
    ]},
    {"smiles": "Cc1c(O)c(=O)ccn1CCO", "values": [
      {"measurement": "T/C", "setting": "dose: 50.0 mg/kg/injection, schedule: Q01DX005 (ip), vehicle: saline", "value": "102 % of control and 104 % of control"},
      {"measurement": "T/C", "setting": "dose: 100.0 mg/kg/injection, schedule: Q01DX005 (ip), vehicle: saline", "value": "100 % of control and 106 % of control"},
      {"measurement": "T/C", "setting": "dose: 200.0 mg/kg/injection, schedule: Q01DX005 (ip), vehicle: saline", "value": "117 % of control and 124 % of control"}
    ]},
    {"smiles": "CCOC(=O)C(Cc1c[nH]c2ccccc12)NCCN", "note": "(centres undefined)", "values": [
      {"measurement": "T/C", "setting": "[1]", "value": "99 % of control"},
      {"measurement": "T/C", "setting": "dose: 100.0 mg/kg/injection, schedule: Q01DX009 (ip), vehicle: saline", "value": "108 % of control"},
      {"measurement": "T/C", "setting": "dose: 200.0 mg/kg/injection, schedule: Q01DX009 (ip), vehicle: saline", "value": "86 % of control"}
    ]},
    {"smiles": "CCC1COS(=O)(=O)CS(=O)(=O)O1", "note": "(centres undefined)", "values": [
      {"measurement": "T/C", "setting": "[2]", "value": "101 % of control"},
      {"measurement": "T/C", "setting": "[3]", "value": "100 % of control"},
      {"measurement": "T/C", "setting": "[4]", "value": "105 % of control"}
    ]},
    {"smiles": "Cc1cc(C2(c3cc(C)c(O)c(C)c3)OC(=O)c3ccccc32)cc(C)c1O", "values": [
      {"measurement": "T/C", "setting": "[5]", "value": "105 % of control"},
      {"measurement": "T/C", "setting": "[6]", "value": "99 % of control"},
      {"measurement": "T/C", "setting": "[7]", "value": "103 % of control"}
    ]},
    {"smiles": "Cc1ccc(NC(=O)c2cc3ccccc3c(N=Nc3ccccc3O)c2O)c(C)c1", "values": [
      {"measurement": "T/C", "setting": "[2]", "value": "94 % of control"},
      {"measurement": "T/C", "setting": "[3]", "value": "109 % of control"},
      {"measurement": "T/C", "setting": "[4]", "value": "97 % of control"}
    ]},
    {"smiles": "C/C(=N\\N=c1\\sc2ccccc2n1CC(=O)O)c1ccccc1", "values": [
      {"measurement": "T/C", "setting": "dose: 100.0 mg/kg/injection, schedule: Q01DX001 (ip), vehicle: saline with Tween-80", "value": "97 % of control"},
      {"measurement": "T/C", "setting": "dose: 200.0 mg/kg/injection, schedule: Q01DX001 (ip), vehicle: saline with Tween-80", "value": "89 % of control"}
    ]},
    {"smiles": "CCCCCCOC(=O)c1ccc(Br)cc1", "values": [
      {"measurement": "T/C", "setting": "[5]", "value": "104 % of control"},
      {"measurement": "T/C", "setting": "[6]", "value": "101 % of control"},
      {"measurement": "T/C", "setting": "[7]", "value": "93 % of control"}
    ]}
  ]
}
